EC50 and cAMP accumulation data for 30 molecules are collected here from ChEMBL document CHEMBL1136685, “Structure-activity relationship of cyclic peptide penta-c[Asp-His(6)-DPhe(7)-Arg(8)-Trp(9)-Lys]-NH(2) at the human melanocortin-1 and -4 receptors: His(6) substitution” (Bioorg Med Chem Lett, 2003).

What all share (assay type): functional
Experiment [1] has as its target T1, Melanocyte-stimulating hormone receptor (Homo sapiens, UniProt Q01726). The experiment in a line: Agonist activity at human melanocortin receptor (hMC1R).
Target sequence in this assay (Q01726 whole entry): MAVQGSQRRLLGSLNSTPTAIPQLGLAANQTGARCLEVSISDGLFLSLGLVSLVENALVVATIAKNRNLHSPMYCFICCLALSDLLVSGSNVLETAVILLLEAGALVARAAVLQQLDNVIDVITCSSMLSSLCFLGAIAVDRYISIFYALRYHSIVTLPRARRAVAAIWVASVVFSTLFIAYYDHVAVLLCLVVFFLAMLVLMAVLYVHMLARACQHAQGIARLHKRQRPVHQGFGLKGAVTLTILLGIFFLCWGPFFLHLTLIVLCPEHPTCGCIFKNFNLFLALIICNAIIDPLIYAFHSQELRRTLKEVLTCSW
Another experiment addresses Melanocortin receptor 4 (Homo sapiens, UniProt P32245). The experiment in a line: Agonist activity at human melanocortin receptor (hMC4R).
The target in experiment [2] is T1, Melanocyte-stimulating hormone receptor. The experiment is described as follows: Agonistic activity against human melanocortin receptor (hMC1R) for cAMP accumulation at a concentration of 50 uM.
Target sequence in this assay (Q01726 whole entry, looked up): as the sequence (Q01726 whole entry) above
The target in a further experiment is Melanocortin receptor 5 (Homo sapiens, UniProt P33032). The experiment is described as follows: Agonistic activity against human melanocortin receptor (hMC5R) for cAMP accumulation at a concentration of 50 uM. (In general: cAMP levels reflect the balance of adenylyl cyclase and phosphodiesterase activity.)
The next experiment concerns the target Melanocortin receptor 3 (Homo sapiens, UniProt P41968). The experiment in a line: Agonistic activity against human melanocortin receptor (hMC3R) for cAMP accumulation at a concentration of 50 uM.

The EC50 is the concentration needed to bring the measured effect to its halfway point. The low end stands for greater potency, the high end for weaker potency.

Melanocortin receptor 4, sequence (P32245 whole entry): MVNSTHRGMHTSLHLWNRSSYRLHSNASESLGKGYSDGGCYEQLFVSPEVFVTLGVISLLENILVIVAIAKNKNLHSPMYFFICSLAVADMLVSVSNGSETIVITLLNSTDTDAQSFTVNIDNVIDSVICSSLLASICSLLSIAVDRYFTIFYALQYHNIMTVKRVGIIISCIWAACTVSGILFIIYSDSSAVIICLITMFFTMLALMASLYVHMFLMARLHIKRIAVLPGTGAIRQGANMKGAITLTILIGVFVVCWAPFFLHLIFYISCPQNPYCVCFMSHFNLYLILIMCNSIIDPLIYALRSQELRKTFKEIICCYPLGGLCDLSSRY
Melanocortin receptor 3, sequence (P41968 whole entry): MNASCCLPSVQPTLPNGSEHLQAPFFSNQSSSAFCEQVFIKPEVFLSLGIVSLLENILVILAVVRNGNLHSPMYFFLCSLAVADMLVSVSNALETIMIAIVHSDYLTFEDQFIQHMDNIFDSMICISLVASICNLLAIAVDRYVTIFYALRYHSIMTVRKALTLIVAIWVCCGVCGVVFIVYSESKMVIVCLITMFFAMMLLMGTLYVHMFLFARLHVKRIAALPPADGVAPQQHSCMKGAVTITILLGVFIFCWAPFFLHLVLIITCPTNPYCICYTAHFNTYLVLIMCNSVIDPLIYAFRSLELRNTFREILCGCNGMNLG
Melanocortin receptor 5, sequence (P33032 whole entry): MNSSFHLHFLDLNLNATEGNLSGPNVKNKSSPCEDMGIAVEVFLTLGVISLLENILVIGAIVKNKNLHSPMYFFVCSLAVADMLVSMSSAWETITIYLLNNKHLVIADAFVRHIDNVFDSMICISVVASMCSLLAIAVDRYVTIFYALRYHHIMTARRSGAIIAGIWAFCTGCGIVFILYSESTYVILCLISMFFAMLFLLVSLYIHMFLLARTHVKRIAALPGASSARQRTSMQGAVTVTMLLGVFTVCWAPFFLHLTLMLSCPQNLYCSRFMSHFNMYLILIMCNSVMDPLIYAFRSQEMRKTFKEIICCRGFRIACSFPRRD

For the molecule `CCCCC(=O)N[C@H]1CC(=O)NCCCC[C@@H](C(N)=O)NC(=O)[C@H](Cc2c[nH]c3ccccc23)NC(=O)[C@H](CCCN=C(N)N)NC(=O)[C@@H](Cc2ccccc2)NC(=O)[C@@]2(CCc3c(CC)cccc3C2)NC1=O`, the EC50 in experiment [1] turned out to be 420 nM; on Melanocortin receptor 4 it was 8 nM.

As to `CCCCC(=O)N[C@H]1CC(=O)NCCCC[C@@H](C(N)=O)NC(=O)[C@H](Cc2c[nH]c3ccccc23)NC(=O)[C@H](CCCN=C(N)N)NC(=O)[C@@H](Cc2ccccc2)NC(=O)[C@@H]2Cc3ccccc3CN2C1=O`, the EC50 in experiment [1] was determined as 5 nM; on Melanocortin receptor 4 it was 3 nM.

As for `CCCC[C@H](NC(C)=O)C(=O)N[C@H]1CC(=O)NCCCC[C@@H](C(N)=O)NC(=O)[C@H](Cc2c[nH]c3ccccc23)NC(=O)[C@H](CCCN=C(N)N)NC(=O)[C@@H](Cc2ccccc2)NC(=O)[C@H](CCC(N)=O)NC1=O`, the EC50 (in experiment [1]; at Melanocortin receptor 4) was 0.3 nM throughout.

With `CCCCC(=O)N[C@H]1CC(=O)NCCCC[C@@H](C(N)=O)NC(=O)[C@H](Cc2c[nH]c3ccccc23)NC(=O)[C@H](CCCNC(=N)N)NC(=O)[C@@H](Cc2ccccc2)NC(=O)C2(Cc3ccccc3C2)NC1=O`, the concentration giving a half-maximal response (EC50) was 370 nM in experiment [1] and 65 nM on Melanocortin receptor 4.

Regarding `CCCCC(=O)N[C@H]1CC(=O)NCCCC[C@@H](C(N)=O)NC(=O)[C@H](Cc2c[nH]c3ccccc23)NC(=O)[C@H](CCCN=C(N)N)NC(=O)[C@@H](Cc2ccccc2)NC(=O)[C@H](Cc2ccc(C(F)(F)F)cc2)NC1=O`, the results for the EC50 (in experiment [1]; at Melanocortin receptor 4) were 12 nM and 2 nM, respectively.

Turning to `CCCCC(=O)N[C@H]1CC(=O)NCCCC[C@@H](C(N)=O)NC(=O)[C@H](Cc2c[nH]c3ccccc23)NC(=O)[C@H](CCCN=C(N)N)NC(=O)[C@@H](Cc2ccccc2)NC(=O)C2(CCc3cc(Br)ccc3C2)NC1=O` (mixture of isomers), the midpoint of the response on Melanocortin receptor 4, the EC50, lay at 37 nM.

Consider `CCCCC(=O)N[C@H]1CC(=O)NCCCC[C@@H](C(N)=O)NC(=O)[C@H](Cc2c[nH]c3ccccc23)NC(=O)[C@H](CCCN=C(N)N)NC(=O)[C@@H](Cc2ccccc2)NC(=O)[C@@]2(CCc3c(cccc3OC)C2)NC1=O` (mixture of isomers), for which the EC50 in experiment [1] is 735 nM; at Melanocortin receptor 4, 5 nM.

`CCCCC(=O)N[C@H]1CC(=O)NCCCC[C@@H](C(N)=O)NC(=O)[C@H](Cc2c[nH]c3ccccc23)NC(=O)[C@H](CCCN=C(N)N)NC(=O)[C@@H](Cc2ccccc2)NC(=O)[C@@]2(CCc3c(C)cccc3C2)NC1=O` (mixture of isomers) had an EC50 on Melanocortin receptor 4 of 25 nM. Moreover, the cAMP accumulation in experiment [2] was 80%.

Take `CCCCC(=O)N[C@H]1CC(=O)NCCCC[C@@H](C(N)=O)NC(=O)[C@H](Cc2c[nH]c3ccccc23)NC(=O)[C@H](CCCN=C(N)N)NC(=O)[C@@H](Cc2ccccc2)NC(=O)[C@@]2(CCc3ccccc3C2)NC1=O` (mixture of isomers): the figures for the EC50 (in experiment [1]; on Melanocortin receptor 4) were 900 nM and 65 nM, respectively.

`CCCCC(=O)N[C@H]1CC(=O)NCCCC[C@@H](C(N)=O)NC(=O)[C@H](Cc2c[nH]c3ccccc23)NC(=O)[C@H](CCCN=C(N)N)NC(=O)[C@@H](Cc2ccccc2)NC(=O)C2(CCc3cc(Cl)ccc3C2)NC1=O` (mixture of isomers) yielded an EC50 on Melanocortin receptor 4 of 33 nM.

For `CCCCC(=O)N[C@H]1CC(=O)NCCCC[C@@H](C(N)=O)NC(=O)[C@H](Cc2c[nH]c3ccccc23)NC(=O)[C@H](CCCNC(=N)N)NC(=O)[C@@H](Cc2ccccc2)NC(=O)C2(CCc3c(cccc3C(C)C)C2)NC1=O` (mixture of isomers), the figures for the EC50 (in experiment [1]; on Melanocortin receptor 4) were 480 nM and 7 nM, respectively.

As to `CCCCC(=O)N[C@H]1CC(=O)NCCCC[C@@H](C(N)=O)NC(=O)[C@H](Cc2c[nH]c3ccccc23)NC(=O)[C@H](CCCN=C(N)N)NC(=O)[C@@H](Cc2ccccc2)NC(=O)C2(CCc3c(cccc3N(C)C)C2)NC1=O` (mixture of isomers), the EC50 was 480 nM in experiment [1] and 45 nM at Melanocortin receptor 4.

At Melanocortin receptor 4, `CCCCC(=O)N[C@H]1CC(=O)NCCCC[C@@H](C(N)=O)NC(=O)[C@H](Cc2c[nH]c3ccccc23)NC(=O)[C@H](CCCN=C(N)N)NC(=O)[C@@H](Cc2ccccc2)NC(=O)C2(CCc3cccc(Br)c3C2)NC1=O` (mixture of isomers) had an EC50 of 176 nM.

As for `CCCCC(=O)N[C@H]1CC(=O)NCCCC[C@@H](C(N)=O)NC(=O)[C@H](Cc2c[nH]c3ccccc23)NC(=O)[C@H](CCCNC(=N)N)NC(=O)[C@@H](Cc2ccccc2)NC(=O)C2(CCc3ccc(Br)cc3C2)NC1=O` (mixture of isomers), the EC50 came to 140 nM in experiment [1] and 10 nM on Melanocortin receptor 4.

`CCCCC(=O)N[C@H]1CC(=O)NCCCC[C@@H](C(N)=O)NC(=O)[C@H](Cc2c[nH]c3ccccc23)NC(=O)[C@H](CCCN=C(N)N)NC(=O)[C@@H](Cc2ccccc2)NC(=O)C2(CCc3c(Cl)cccc3C2)NC1=O` (mixture of isomers): the EC50 at Melanocortin receptor 4 came to 9 nM.

With `CCCCC(=O)N[C@H]1CC(=O)NCCCC[C@@H](C(N)=O)NC(=O)[C@H](Cc2c[nH]c3ccccc23)NC(=O)[C@H](CCCN=C(N)N)NC(=O)[C@@H](Cc2ccccc2)NC(=O)C2(CCc3c(cccc3OC(C)C)C2)NC1=O` (mixture of isomers), the EC50 is 1330 nM in experiment [1] and 7 nM at Melanocortin receptor 4.

With `CCCCC(=O)N[C@H]1CC(=O)NCCCC[C@@H](C(N)=O)NC(=O)[C@H](Cc2c[nH]c3ccccc23)NC(=O)[C@H](CCCNC(=N)N)NC(=O)[C@@H](Cc2ccccc2)NC(=O)C2(CCc3c(cccc3OCC)C2)NC1=O` (mixture of isomers), the EC50 in experiment [1] was 1270 nM; on Melanocortin receptor 4, 35 nM.

For the molecule `CCCCC(=O)N[C@@H]1CC(=O)NCCCC[C@@H](C(N)=O)NC(=O)[C@H](Cc2c[nH]c3ccccc23)NC(=O)[C@@H](CCCN=C(N)N)NC(=O)[C@H](Cc2ccccc2)NC(=O)C2(CCc3c(Cl)cccc3C2)NC1=O` (mixture of isomers), the cAMP accumulation in experiment [2] is 30%.

With `CCCCC(=O)N[C@@H]1CC(=O)NCCCC[C@@H](C(N)=O)NC(=O)[C@H](Cc2c[nH]c3ccccc23)NC(=O)[C@@H](CCCN=C(N)N)NC(=O)[C@H](Cc2ccccc2)NC(=O)C2(CCc3cc(Br)ccc3C2)NC1=O` (mixture of isomers), the cAMP accumulation in experiment [2] came to 60%.

The molecule `CCCCC(=O)N[C@@H]1CC(=O)NCCCC[C@@H](C(N)=O)NC(=O)[C@H](Cc2c[nH]c3ccccc23)NC(=O)[C@@H](CCCN=C(N)N)NC(=O)[C@H](Cc2ccccc2)NC(=O)C2(CCc3cc(Cl)ccc3C2)NC1=O` (mixture of isomers) yielded a cAMP accumulation in experiment [2] of 50%.

Molecule `CCCCC(=O)N[C@@H]1CC(=O)NCCCC[C@@H](C(N)=O)NC(=O)[C@H](Cc2c[nH]c3ccccc23)NC(=O)[C@@H](CCCN=C(N)N)NC(=O)[C@H](Cc2ccccc2)NC(=O)C2(CCc3cccc(Br)c3C2)NC1=O` (mixture of isomers) displayed a cAMP accumulation in experiment [2] of 60%.

On to `CCCCC(=O)N[C@H]1CC(=O)NCCCC[C@@H](C(N)=O)NC(=O)[C@H](Cc2c[nH]c3ccccc23)NC(=O)[C@H](CCCN=C(N)N)NC(=O)[C@@H](Cc2ccccc2)NC(=O)C2(CCc3c(Br)cccc3C2)NC1=O` (single isomer, unassigned; form 1), for which a half-maximal effect at Melanocortin receptor 4 (EC50) was put at 15 nM.

In turn, `CCCCC(=O)N[C@@H]1CC(=O)NCCCC[C@@H](C(N)=O)NC(=O)[C@H](Cc2c[nH]c3ccccc23)NC(=O)[C@@H](CCCN=C(N)N)NC(=O)[C@H](Cc2ccccc2)NC(=O)C2(CCc3c(Br)cccc3C2)NC1=O` (single isomer, unassigned; form 1) came in with a cAMP accumulation in experiment [2] of 80%.

As for `CCCCC(=O)N[C@@H]1CC(=O)NCCCC[C@@H](C(N)=O)NC(=O)[C@H](Cc2c[nH]c3ccccc23)NC(=O)[C@@H](CCCN=C(N)N)NC(=O)[C@H](Cc2ccccc2)NC(=O)C2(CCc3c(Cl)cccc3C2)NC1=O` (single isomer, unassigned; form 1), the cAMP accumulation came out at 75% at Melanocortin receptor 5, 25% at Melanocortin receptor 3 and 20% in experiment [2].

As to `CCCCC(=O)N[C@@H]1CC(=O)NCCCC[C@@H](C(N)=O)NC(=O)[C@H](Cc2c[nH]c3ccccc23)NC(=O)[C@@H](CCCNC(N)=O)NC(=O)[C@H](Cc2ccccc2)NC(=O)C2(CCc3c(Cl)cccc3C2)NC1=O` (single isomer, unassigned; form 1), the cAMP accumulation (at Melanocortin receptor 5; at Melanocortin receptor 3; in experiment [2]) was 0% throughout.

On to `CCCCC(=O)N[C@H]1CC(=O)NCCCC[C@@H](C(N)=O)NC(=O)[C@H](Cc2c[nH]c3ccccc23)NC(=O)[C@H](CCCN=C(N)N)NC(=O)[C@@H](Cc2ccccc2)NC(=O)[C@@H]2c3ccccc3CN2C1=O` (single isomer, unassigned; form 2), for which the EC50 in experiment [1] is 3 nM; at Melanocortin receptor 4, 2 nM.

With `CCCCC(=O)N[C@H]1CC(=O)NCCCC[C@@H](C(N)=O)NC(=O)[C@H](Cc2c[nH]c3ccccc23)NC(=O)[C@H](CCCN=C(N)N)NC(=O)[C@@H](Cc2ccccc2)NC(=O)C2(CCc3c(Br)cccc3C2)NC1=O` (single isomer, unassigned; form 2), the EC50 on Melanocortin receptor 4 worked out at 41 nM.

For `CCCCC(=O)N[C@@H]1CC(=O)NCCCC[C@@H](C(N)=O)NC(=O)[C@H](Cc2c[nH]c3ccccc23)NC(=O)[C@@H](CCCN=C(N)N)NC(=O)[C@H](Cc2ccccc2)NC(=O)C2(CCc3c(Br)cccc3C2)NC1=O` (single isomer, unassigned; form 2), in experiment [2], the cAMP accumulation turned out to be 70%.

In the case of `CCCCC(=O)N[C@@H]1CC(=O)NCCCC[C@@H](C(N)=O)NC(=O)[C@H](Cc2c[nH]c3ccccc23)NC(=O)[C@@H](CCCN=C(N)N)NC(=O)[C@H](Cc2ccccc2)NC(=O)C2(CCc3c(Cl)cccc3C2)NC1=O` (single isomer, unassigned; form 2), the cAMP accumulation came out at 38% on Melanocortin receptor 5, 0% at Melanocortin receptor 3 and 60% in experiment [2].

`CCCCC(=O)N[C@@H]1CC(=O)NCCCC[C@@H](C(N)=O)NC(=O)[C@H](Cc2c[nH]c3ccccc23)NC(=O)[C@@H](CCCNC(N)=O)NC(=O)[C@H](Cc2ccccc2)NC(=O)C2(CCc3c(Cl)cccc3C2)NC1=O` (single isomer, unassigned; form 2): the cAMP accumulation (on Melanocortin receptor 5; at Melanocortin receptor 3; in experiment [2]) was 0% throughout.
